Positions count from the first letter of the chain named. Where two headings read alike, the source gives them in different places.
Assays:
androgen receptor = biological target: T1, androgen receptor (Homo sapiens, UniProt P10275, Q868H); experiment: AR antagonist cell assay (MDA-MB453-MMTV luciferase reporter, 100 pM DHT); format: cell-based
T1 construct: a human breast tumor cell line expressing androgen receptor; endogenous in cells; host or cells: MDA-MB453-MMTV clone 54-19 (MDA-MB-453 stably transfected with the MMTV-luciferase reporter only)
T1 sequence (P10275 1-920 Q868H): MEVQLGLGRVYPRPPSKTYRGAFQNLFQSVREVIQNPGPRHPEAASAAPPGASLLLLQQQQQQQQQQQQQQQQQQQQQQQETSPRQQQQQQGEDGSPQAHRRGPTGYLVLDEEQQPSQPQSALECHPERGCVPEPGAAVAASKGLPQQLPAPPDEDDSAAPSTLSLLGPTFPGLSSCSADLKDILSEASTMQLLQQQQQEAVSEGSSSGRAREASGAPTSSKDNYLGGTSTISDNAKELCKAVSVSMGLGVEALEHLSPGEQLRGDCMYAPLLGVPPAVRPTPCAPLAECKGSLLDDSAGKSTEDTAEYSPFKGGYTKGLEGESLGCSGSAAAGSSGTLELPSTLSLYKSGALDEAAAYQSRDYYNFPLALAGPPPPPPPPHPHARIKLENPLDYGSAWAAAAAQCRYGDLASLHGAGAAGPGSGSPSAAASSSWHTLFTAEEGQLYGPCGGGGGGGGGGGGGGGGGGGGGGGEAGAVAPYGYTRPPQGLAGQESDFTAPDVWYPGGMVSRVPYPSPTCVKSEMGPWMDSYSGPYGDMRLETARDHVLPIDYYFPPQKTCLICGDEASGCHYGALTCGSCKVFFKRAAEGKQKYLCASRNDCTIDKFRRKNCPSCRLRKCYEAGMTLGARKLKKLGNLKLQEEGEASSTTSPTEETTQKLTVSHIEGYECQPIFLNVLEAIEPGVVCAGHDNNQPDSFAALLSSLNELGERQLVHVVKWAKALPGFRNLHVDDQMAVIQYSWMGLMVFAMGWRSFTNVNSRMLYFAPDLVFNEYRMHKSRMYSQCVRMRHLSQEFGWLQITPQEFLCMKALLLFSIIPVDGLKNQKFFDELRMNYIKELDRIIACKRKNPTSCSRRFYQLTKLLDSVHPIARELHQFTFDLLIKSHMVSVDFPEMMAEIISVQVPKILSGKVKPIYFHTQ
Method: The compounds ability to antagonize the effects of androgen on the androgen receptor were determined in a whole cell assay as described immediately below.
Experimental Procedure for AR Antagonist Cell Assay
This cell line is a stable transfected cell line with MDA-MB453 cell background (a human breast tumor cell line expressing androgen receptor). A MMTV minimal promoter containing ARE was first cloned in front of a firefly luciferase reporter gene. Then the cascade was cloned into transfection vector pUV120puro. […] Puromycin resistant stable cell line was selected.
Cell Culture Media and Reagents:
Plating medium: DMEM (phenol red free), 10% charcoal treated HyClone serum, 1% L-glutamine
Assay medium: DMEM (phenol red free), 1% charcoal treated HyClone serum, 1% L-glutamine, and 1% penicillin/streptomycin
• 1. Cells are maintained in culture medium, splitting cells when they reach 80-90% confluence • 2. To test compounds, 10,000 cells/well are plated to opaque 96 cell culture plate in 100 uvwell plating medium, culture for overnight at 37° C. in cell culture incubator • 3. […] Add 10 ul/well freshly prepared DHT (final concentration at 100 pM) to each well, incubate at 37° C. for 17 hr (overnight) • 5.
The results are reported as the mean of multiple tests as described below (the numbers of tests are indicated in the footnote). N.D. denotes that the compound was not tested.

[1] = biological target: T2, hAR (human androgen receptor) (Homo sapiens, UniProt P10275); experiment: Competitive binding analysis on hAR extracts with 3H-DHT tracer
T2 construct: made in house; host or cells: baculovirus/Sf9 insect cells
T2 sequence (P10275 1-920): T1 sequence (P10275 1-920 Q868H) with H868Q
Method: The description below describes how the assay was carried out.
Competitive binding analysis was performed on baculovirus/Sf9 generated hAR extracts in the presence or absence of different concentrations of test agent and a fixed concentration of ^3H-dihydrotestosterone (^3H-DHT) as tracer. This binding assay method is a modification of a protocol previously described (Liao S., et. al. J. Steroid Biochem. 20:11-17 1984). Briefly, progressively decreasing concentrations of compounds are incubated in the presence of hAR extract (Chang et al. P.N.A.S. Vol. 89, pp. […], 1992), hydroxylapatite, and 1 nM^3 H-DHT for one hour at 4° C. Subsequently, the binding reactions are washed three times to completely remove excess unbound ^3H-DHT. hAR bound ^3H-DHT levels are determined in the presence of compounds (=i.e competitive binding) and compared to levels bound when no competitor is present (=i.e. maximum binding). Compound binding affinity to the hAR is expressed as the concentration of compound at which one half of the maximum binding is inhibited.

Male C3H/HeN mice = experiment: Modified telogen conversion assay; format: in vivo; conditions: 3% w/v in propylene glycol (30%)/ethanol (70%), topical, twice daily for 4 weeks
Description: The telogen conversion assay measures the potential of a compound to convert mice in the resting stage of the hair growth cycle (“telogen”) to the active stage of the hair growth cycle (“anagen”). This assay takes advantage of the fact that the fur (i.e. hair) of 7 week old C3H/HeN mice is in the telogen phase. This phase continues until about 75 days of age. In this assay, selected areas of the mice are shaved, contacted with a test agent, or a control, and the difference in the rate of hair growth is measured (i.e. induction of the anagen phase). The first sign of anagen is the darkening of skin color as melanocytes in the follicles start to synthesize melanin, in preparation for the production of pigmented hairs. This model has a number of advantages. This includes the ready availability of female CH3HeN mice, the ability to screen large numbers of compounds quickly, and the ease of housing and handling such animals.
It has been discovered that male C3H/HeN mice may be used in the telogen conversion assay, when evaluating anti-androgen test compounds. Thus, the model relates to a modification of the existing telogen conversion assay. […]
The treatment area was observed and graded every other day for signs of hair growth. The hair growth response was quantified by recording, for each animal, the day on which signs of hair growth first appeared over the treated area. […]

[2] = after 7 years of treatment; cited from earlier work
[3] = MDA-MB453-MMTV clone 54-19, 100 pM DHT, 17 hr, mean of multiple tests, read-out: AR Cell IC50
[4] = baculovirus/Sf9 generated hAR extract, 1 nM 3H-DHT, one hour at 4° C., mean of repeated tests, read-out: AR Binding IC50

Compound	IC50 (androgen receptor; [3])	IC50 [1]	IC50 [1, 4]	other results
CCC(C)N(C)c1cc(C(F)(F)F)c(C#N)cn1 (centres unmarked) [Example 4, 6-(sec-Butyl-methyl-amino)-4-trifluoromethyl-nicotinonitrile]	> 1000 nM	10 nM		
C[C@H](c1ccccc1)N(C)c1cc(C(F)(F)F)c(C#N)cn1 (hydrate or solvate) [Example 1, (R)-(+)-6-[Methyl-(1-Phenyl-ethyl)-amino]-4-trifluoromethyl-nicotinonitrile]				melting point: 47.2 to 47.7 °C
CCCN(CCC)c1cc(C(F)(F)F)c(C#N)cn1 [Example 3, 6-Dipropylamino-4-trifluoromethyl-nicotinonitrile]	> 1000 nM	22 nM		
CCCCN(CCO)c1cc(C(F)(F)F)c(C#N)cn1 [Example 5, 6-[Butyl-(2-hydroxy-ethyl)-amino]-4-trifluoromethyl-nicotinonitrile]			548 nM	
C[C@H](c1ccccc1)N(C)c1cc(C(F)(F)F)c(C#N)cn1 [Example 1, (R)-(+)-6-[Methyl-(1-Phenyl-ethyl)-amino]-4-trifluoromethyl-nicotinonitrile]		20 nM		IC50 (androgen receptor): 45 nM; hair growth (induction of anagen) (Male C3H/HeN mice): produced substantial hair growth
CCC(C)N(C)c1cc(C(F)(F)F)c(C#N)c(Cl)n1 (centres unmarked) [Example 10]	> 1000 nM	0.5 nM		
CC(c1ccccc1)N(C)c1cc(C(F)(F)F)c(C#N)cn1 (centres unmarked) [Example 2, 6-[Methyl-(1-Phenyl-ethyl)-amino]-4-trifluoromethyl-nicotinonitrile]		123 nM		IC50 (androgen receptor): 229 nM
CN(Cc1ccccc1)c1cc(C(F)(F)F)c(C#N)cn1 [Example 7, 6-(Benzyl-methyl-amino)-4-trifluoromethyl-nicotinonitrile]			538 nM	
CCCN(CCC)c1cc(C(F)(F)F)c(C#N)c(Cl)n1 [Example 11, 6-Dipropylamino-2-chloro-4-rtifluoromethyl-nicotinonitrile]	> 1000 nM	8.2 nM		
2-Chloro-6-(methyl-propyl-amino)-4-trifluoromethyl-nicotinonitrile [Example 12]	587 nM		88 nM	
NCCCC(O)(P(=O)(O)O)P(=O)(O)O [alendronate]				increase in spinal BMD [2]: ≤ 11%
CCCN(c1cc(C(F)(F)F)c(C#N)cn1)C1CCCCC1 [Example 8, 6-(Cyclohexyl-propyl-amino)-4-trifluoromethyl-nicotinonitrile]			425 nM	
